The values that follow come from ChEMBL document CHEMBL4049463, “Repurposing Suzuki Coupling Reagents as a Directed Fragment Library Targeting Serine Hydrolases and Related Enzymes” (J Med Chem, 2017).

Molecules are shown by their SMILES. pIC50: −log10 of the molar value.

In one test the target is Autotaxin (Mus musculus, UniProt Q9R1E6). Put plainly: Inhibition of mouse ATX using TG-mTMP as substrate after 2 hrs by fluorometric analysis.
As a reminder, the pIC50 is −log10 of the IC50, conventionally taken in molar units. Low values mean a high IC50, high ones a low IC50. As for `OB(O)c1cccc(CCN2CCN(c3nc(O)c(Cc4ccc(Cl)c(Cl)c4)s3)CC2)c1`, the pIC50 was 7.90.

As for `OB(O)c1ccc(CCCN2CCC(c3nc(O)c(Cc4ccc(Cl)c(Cl)c4)s3)CC2)cc1`, the pIC50 was 7.70.

In the case of `OB(O)c1ccccc1CCN1CCN(c2nc(O)c(Cc3ccc(Cl)c(Cl)c3)s2)CC1`, the pIC50 was 6.20.

The target of a further test is Autotaxin (Mus musculus) (UniProt Q9R1E6).
Regarding `OB(O)c1ccc(Cl)cc1`, the pIC50 was 5.50.

Compound `O=C(O)c1ccc2cc[nH]c2c1` had a negative logarithm of the IC50 (pIC50) of 3.10.

For `COc1ccc(B(O)O)cc1`, the pIC50 is 5.30.

`OB(O)c1cccc(O)c1` showed a pIC50 of 5.00.

For `Oc1ccc(-n2ccnc2)cc1`, the pIC50 is 3.30. This pIC50 lies 1.70 log units lower than the previous one.

As to `OB(O)c1ccc(O)cc1`, the negative-log IC50 (pIC50) was 5.00.

In turn, `COc1ccccc1B(O)O` gave a pIC50 of 5.40.

`OCc1cccc(B(O)O)c1` had a pIC50 of 4.90. This pIC50 is 0.50 log units lower than that of the compound before.

As for `Oc1ccc2nonc2c1`, the pIC50 was 3.70.

`NCc1cccc(O)c1`: the pIC50 was 2.90. This pIC50 lies 0.80 log units lower than the previous one.

`OB(O)c1ccc2cc[nH]c2c1`: the pIC50 is 5.70.

Turning to `Nc1cccc(-c2nnc[nH]2)c1`, the negative logarithm of the IC50 (pIC50) is 3.60. Against the preceding compound, the pIC50 is 2.10 log units lower.

`OB(O)c1ccccc1OCc1cccc(Cl)c1`: the pIC50 is 6.00.

For `OB(O)c1ccc2nonc2c1`, the pIC50 is 5.00.

`CS(=O)(=O)c1ccc(B(O)O)cc1` showed a pIC50 of 5.30.

The compound `COc1cc(COc2ccc(B(O)O)cc2Cl)cc(OC)c1` had a pIC50 of 6.50.

The compound `N#CCc1cccc(B(O)O)c1` had a pIC50 of 5.30.

On to `COCCc1ccc(OCc2cccc(B(O)O)c2)cc1`, for which the pIC50 was 6.30.

For `N#C/C=C/c1cccc(B(O)O)c1`, the pIC50 is 5.80.

Compound `N#Cc1cccc(B(O)O)c1` gave a pIC50 of 4.70.

Compound `COc1cccc(B(O)O)c1` gave a pIC50 of 4.70.

Take `N#Cc1ccc(B(O)O)cc1`: the pIC50 is 5.30.

In turn, `CS(=O)(=O)c1ccc(O)cc1` had a pIC50 of 3.20.

In turn, `OB(O)c1ccccc1` [PHENYLBORONIC ACID] had a negative-log IC50 (pIC50) of 5.00.
